The record followed here is paper PMC12732675, “Catalytically Active Recombinant Cysteine Proteases of Haemonchus contortus: Their Ability to Degrade Host Blood Proteins and Modulate Coagulation” (International Journal of Molecular Sciences, 2025).

For test [1], the target named is T1, mHcCBP1 (Haemonchus contortus, UniProt A0A7I4Z8W6).
T1 construct: native signal peptide replaced by CD5 signal; C-terminal His tag; secreted from FreeStyle 293-F cells; Ni-NTA purified
Kind of test: ovine fibrinogen degradation, SDS-PAGE. The class given is biochemical. Particulars: 10 and 50 uM E-64, 15 min pre-incubation, PBS pH 7.4, 37 °C, 16 h; irreversible, covalent.

Test [2] addresses T2, mHcCP1c (Haemonchus contortus, UniProt A0A7I4XTV4).
T2 construct: native signal peptide replaced by CD5 signal; C-terminal His tag; secreted from FreeStyle 293-F cells; Ni-NTA purified
Description: ovine fibrinogen degradation, SDS-PAGE. The class given is biochemical. Particulars: 10 and 50 uM E-64, 15 min pre-incubation, PBS pH 7.4, 37 °C, 16 h; irreversible, covalent.

T1 sequence (A0A7I4Z8W6 entry or part of it): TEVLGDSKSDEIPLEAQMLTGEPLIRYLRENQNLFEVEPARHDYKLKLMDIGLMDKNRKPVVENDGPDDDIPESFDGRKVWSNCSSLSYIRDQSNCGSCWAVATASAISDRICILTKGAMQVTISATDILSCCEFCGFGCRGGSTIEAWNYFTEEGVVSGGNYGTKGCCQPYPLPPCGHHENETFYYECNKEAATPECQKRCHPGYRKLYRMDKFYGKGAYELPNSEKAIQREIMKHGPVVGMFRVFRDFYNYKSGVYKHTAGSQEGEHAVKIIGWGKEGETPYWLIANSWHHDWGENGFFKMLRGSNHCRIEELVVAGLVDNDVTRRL
T2 sequence (A0A7I4XTV4 entry or part of it): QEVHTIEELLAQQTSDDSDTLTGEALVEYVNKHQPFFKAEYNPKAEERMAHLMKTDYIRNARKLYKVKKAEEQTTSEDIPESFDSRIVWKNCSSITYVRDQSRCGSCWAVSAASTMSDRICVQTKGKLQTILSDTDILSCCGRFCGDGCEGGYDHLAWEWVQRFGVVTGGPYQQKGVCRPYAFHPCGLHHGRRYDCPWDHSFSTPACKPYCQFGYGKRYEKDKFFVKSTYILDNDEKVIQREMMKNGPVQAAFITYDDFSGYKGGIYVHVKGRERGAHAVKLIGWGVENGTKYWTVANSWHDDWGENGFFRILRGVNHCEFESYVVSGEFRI

With `CC(C)C[C@H](NC(=O)[C@H]1O[C@@H]1C(=O)O)C(=O)NCCCCN=C(N)N` [E-64, L-trans-epoxysuccinyl-leucyl-amido (4-guanidino) butane], the “ovine fibrinogen degradation, SDS-PAGE” value in test [1] is listed as “ablation of the fibrinogenolytic activities of mHcCBP1, mHcCP1c (Figure 7A)”; in test [2], “ablation of the fibrinogenolytic activities of mHcCBP1, mHcCP1c (Figure 7A)”.
